What follows are molecules tested against T1, Human thrombin (Homo sapiens, UniProt P00734) (assay: Inhibition of the protease activity of thrombin (chromogenic substrate S-2238)). Settings: Table C; 3 nM thrombin, 125 μM S-2238, 10 min pre-incubation, RT.
T1 construct: purchased Haematologic Technologies Inc
Format: biochemical
CCCC(=O)n1nc(-c2cccnc2)nc1NCc1ccc(OC)cc1 [Cmpd 322, 1-(5-[(4-methoxyphenyl)methyl]amino-3-(pyridin-3-yl)-1H-1,2,4-triazol-1-yl)butan-1-one] was tested, and the IC50 was less than 100 nM. For O=C(Cc1ccccc1)n1nc(-c2ccccc2)nc1NCc1ccccc1 [Cmpd 353, 1-[5-(benzylamino)-3-phenyl-1H-1,2,4-triazol-1-yl]-2-phenylethan-1-one], the IC50 was less than 100 nM. O=C(Nc1n[nH]c(-c2ccco2)n1)c1ccccc1F [Cmpd 365, 2-fluoro-N-[5-(furan-2-yl)-1H-1,2,4-triazol-3-yl]benzamide] gave an IC50 greater than 1000 nM. Molecule O=C(c1ccccc1)n1nc(-c2ccccc2)nc1NCc1ccccc1 [Cmpd 359, 1-benzoyl-N-benzyl-3-phenyl-1H-1,2,4-triazol-5-amine] has an IC50 of less than 100 nM. Work on Cc1ccc(CNc2nc(-c3cccnc3)nn2C(=O)CC(C)C)cc1 [Cmpd 374, 3-methyl-1-(5-[(4-methylphenyl)methyl]amino-3-(pyridin-3-yl)-1H-1,2,4-triazol-1-yl)butan-1-one] yielded an IC50 of less than 100 nM. CCC(=O)n1nc(-c2cccnc2)nc1NCc1cccc(F)c1 [Cmpd 8, 1-(5-[(3-fluorophenyl)methyl]amino-3-(pyridin-3-yl)-1H-1,2,4-triazol-1-yl)propan-1-one] showed an IC50 of 100 to 1000 nM. In the case of Cc1ccc(C(=O)n2nc(-c3cccnc3)nc2NCc2ccc(F)cc2)cc1 [Cmpd 401, N-[(4-fluorophenyl)methyl]-1-[(4-methylphenyl)carbonyl]-3-(pyridin-3-yl)-1H-1,2,4-triazol-5-amine], the IC50 is reported as less than 100 nM. O=C(c1ccc(Cl)cc1)n1nc(-c2cccnc2)nc1NCc1ccc(F)cc1 [Cmpd 338, 1-[(4-chlorophenyl)carbonyl]-N-[(4-fluorophenyl)methyl]-3-(pyridin-3-yl)-1H-1,2,4-triazol-5-amine] gave an IC50 of less than 100 nM. O=S(=O)(c1ccccc1)n1nc(-c2cccnc2)nc1NCc1cccs1 [Cmpd 327, 1-(benzenesulfonyl)-3-(pyridin-3-yl)-N-(thiophen-2-ylmethyl)-1H-1,2,4-triazol-5-amine] showed an IC50 greater than 1000 nM. CCC(=O)n1nc(-c2ccco2)nc1SC [Cmpd 341, 1-[3-(furan-2-yl)-5-(methylsulfanyl)-1H-1,2,4-triazol-1-yl]propan-1-one] gave an IC50 greater than 1000 nM. In the case of COC(=O)c1n[nH]c(NC(=O)C(C)(C)C)n1 [Cmpd 378, methyl 5-(2,2-dimethylpropanamido)-1H-1,2,4-triazole-3-carboxylate], the IC50 is reported as greater than 1000 nM. With COc1ccc(CNc2nc(-c3cccnc3)nn2C(=O)CCc2ccccc2)cc1 [Cmpd 321, 1-(5-[(4-methoxyphenyl)methyl]amino-3-(pyridin-3-yl)-1H-1,2,4-triazol-1-yl)-3-phenylpropan-1-one] the IC50 was 100 to 1000 nM. With COc1ccccc1CNc1nc(-c2cccnc2)nn1C(=O)c1cccnc1 [Cmpd 398, N-[(2-methoxyphenyl)methyl]-3-(pyridin-3-yl)-1-[(pyridin-3-yl)carbonyl]-1H-1,2,4-triazol-5-amine] the IC50 was greater than 1000 nM. Work on CC(C)CC(=O)n1nc(-c2cccnc2)nc1NCc1ccc(F)cc1 [Cmpd 314, 1-(5-[(4-fluorophenyl)methyl]amino-3-(pyridin-3-yl)-1H-1,2,4-triazol-1-yl)-3-methylbutan-1-one] yielded an IC50 of less than 100 nM.

Same assay, conditions: inhibition of the protease activity of thrombin
For O=C(c1ccsc1)n1nc(-c2ccncc2)nc1NCc1ccccc1 [Cmpd 289, N-benzyl-3-(pyridin-4-yl)-1-[(thiophen-3-yl)carbonyl]-1H-1,2,4-triazol-5-amine], the IC50 was less than 100 nM. COc1ccccc1C(=O)n1nc(-c2cccs2)nc1NCc1ccccc1 [Cmpd 258, N-benzyl-1-[(2-methoxyphenyl)carbonyl]-3-(thiophen-2-yl)-1H-1,2,4-triazol-5-amine] was tested, and the IC50 was less than 100 nM. Work on CC(=O)c1cn(-c2ccccc2)nc1N(Cc1ccc(F)cc1)C(=O)OC(C)(C)C [Cmpd 302, tert-butyl N-(4-acetyl-1-phenyl-1H-pyrazol-3-yl)-N-[(4-fluorophenyl)methyl]carbamate] yielded an IC50 greater than 1000 nM. For O=C(c1ccccc1C(F)(F)F)n1nc(-c2ccccn2)nc1NCc1ccccc1 [Cmpd 286, N-benzyl-3-(pyridin-2-yl)-1-[2-(trifluoromethyl)phenyl]carbonyl-1H-1,2,4-triazol-5-amine], the IC50 was greater than 1000 nM. For Cc1ccccc1C(=O)n1nc(-c2ccccn2)nc1NCc1ccccc1 [Cmpd 259, N-benzyl-1-[(2-methylphenyl)carbonyl]-3-(pyridin-2-yl)-1H-1,2,4-triazol-5-amine], the IC50 was less than 100 nM. Fc1ccc(CNc2nc(-c3ccccn3)n(CCc3ccccc3)n2)cc1 [Cmpd 204, N-[(4-fluorophenyl)methyl]-1-(2-phenylethyl)-5-(pyridin-2-yl)-1H-1,2,4-triazol-3-amine] showed an IC50 greater than 1000 nM. O=C(c1c(F)cccc1F)n1nc(-c2ccccn2)nc1NCc1ccccc1 [Cmpd 239, N-benzyl-1-[(2,6-difluorophenyl)carbonyl]-3-(pyridin-2-yl)-1H-1,2,4-triazol-5-amine] gave an IC50 of 100 to 1000 nM.

Same assay, conditions: inhibition of the protease activity of thrombin; class symbols a/b/c
Work on COc1ccccc1C(=O)n1nc(-c2ccccn2)nc1NCc1ccsc1 [Cmpd 117, 1-[(2-methoxyphenyl)carbonyl]-3-(pyridin-2-yl)-N-(thiophen-3-ylmethyl)-1H-1,2,4-triazol-5-amine] yielded an IC50 of less than 100 nM. In the case of COc1ccc(C(=O)n2nc(-c3ccccn3)cc2NCc2ccccc2)c(N)c1 [Cmpd 105, 1-[(2-amino-4-methoxyphenyl)carbonyl]-N-benzyl-3-(pyridin-2-yl)-1H-pyrazol-5-amine], the IC50 is reported as 100 to 1000 nM. Work on CC(C)C(=O)n1nc(-c2ccncc2)nc1NCc1ccc(F)cc1 [Cmpd 76, 1-(5-[(4-fluorophenyl)methyl]amino-3-(pyridin-4-yl)-1H-1,2,4-triazol-1-yl)-2-methylpropan-1-one] yielded an IC50 of less than 100 nM. Work on COc1ccc(C(=O)n2nc(-c3ccccc3F)cc2NCc2ccccc2)c(N)c1 [Cmpd 103, 1-[(2-amino-4-methoxyphenyl)carbonyl]-N-benzyl-3-(2-fluorophenyl)-1H-pyrazol-5-amine] yielded an IC50 greater than 1000 nM. Work on O=C(Cc1ccccc1)n1nc(-c2ccncc2)nc1NCc1ccccc1 [Cmpd 147, 1-[5-(benzylamino)-3-(pyridin-4-yl)-1H-1,2,4-triazol-1-yl]-2-phenylethan-1-one] yielded an IC50 of less than 100 nM. In the case of O=C(Nc1nc(C(=O)N2CCCC2)n[nH]1)c1ccccc1Cl [Cmpd 171, 2-chloro-N-3-[(pyrrolidin-1-yl)carbonyl]-1H-1,2,4-triazol-5-ylbenzamide], the IC50 is reported as greater than 1000 nM. Molecule COC(=O)c1n[nH]c(NC(=O)c2cccc(Cl)c2)n1 [Cmpd 195, methyl 5-[(3-chlorobenzene)amido]-1H-1,2,4-triazole-3-carboxylate] has an IC50 greater than 1000 nM. O=C(c1cccc2c1OCCO2)n1nc(-c2ccccc2)nc1NCc1ccc(F)cc1 [Cmpd 102, 1-[(2,3-dihydro-1,4-benzodioxin-5-yl)carbonyl]-N-[(4-fluorophenyl)methyl]-3-phenyl-1H-1,2,4-triazol-5-amine] gave an IC50 of less than 100 nM. Cc1ccc(C(=O)n2nc(-c3ccccn3)nc2NCc2ccccc2)c(N)c1 [Cmpd 107, 1-[(2-amino-4-methylphenyl)carbonyl]-N-benzyl-3-(pyridin-2-yl)-1H-1,2,4-triazol-5-amine] gave an IC50 of less than 100 nM. Work on CCC(=O)n1nc(-c2cccnc2)nc1N [Cmpd 155, 1-[5-amino-3-(pyridin-3-yl)-1H-1,2,4-triazol-1-yl]propan-1-one] yielded an IC50 greater than 1000 nM. Molecule CN(C(=O)c1cc(-c2ccccn2)n(CCc2ccc(F)cc2)n1)c1ccccc1 [Cmpd 131, 1-[2-(4-fluorophenyl)ethyl]-N-methyl-N-phenyl-5-(pyridin-2-yl)-1H-pyrazole-3-carboxamide] has an IC50 greater than 1000 nM. O=C(c1ccsc1)n1nc(-c2ccncc2)nc1NCc1ccc(F)cc1 [Cmpd 15] showed an IC50 of less than 100 nM. For CCC(=O)n1nc(-c2cccnc2)nc1SC [Cmpd 153, 1-[5-(methylsulfanyl)-3-(pyridin-3-yl)-1H-1,2,4-triazol-1-yl]propan-1-one], the IC50 was greater than 1000 nM. Work on O=C(c1ccccc1Cl)n1nc(-c2ccccn2)nc1NCc1ccc(F)cc1 [Cmpd 111, 1-[(2-chlorophenyl)carbonyl]-N-[(4-fluorophenyl)methyl]-3-(pyridin-2-yl)-1H-1,2,4-triazol-5-amine] yielded an IC50 of less than 100 nM. O=C(CCc1ccccc1)n1nc(-c2ccncc2)nc1NCc1ccc(F)cc1 [Cmpd 79, 1-(5-[(4-fluorophenyl)methyl]amino-3-(pyridin-4-yl)-1H-1,2,4-triazol-1-yl)-3-phenylpropan-1-one] gave an IC50 of less than 100 nM. Work on CCOC(=O)c1cn(-c2ccccn2)nc1NCc1ccc(F)cc1 [Cmpd 46] yielded an IC50 greater than 1000 nM. Work on CCOC(=O)c1cc(-c2ccccn2)nn1CCc1ccc(F)cc1 [Cmpd 51] yielded an IC50 greater than 1000 nM. For O=C(c1ccccc1Cl)n1nc(-c2cccs2)nc1NCc1ccc(F)cc1 [Cmpd 113, 1-[(2-chlorophenyl)carbonyl]-N-[(4-fluorophenyl)methyl]-3-(thiophen-2-yl)-1H-1,2,4-triazol-5-amine], the IC50 was less than 100 nM. In the case of CON(C)C(=O)c1cc(-c2ccccn2)nn1CCc1ccc(F)cc1 [Cmpd 53], the IC50 is reported as greater than 1000 nM. For COc1ccc(CNc2nc(-c3ccncc3)nn2C(=O)c2ccco2)cc1 [Cmpd 124, 1-[(furan-2-yl)carbonyl]-N-[(4-methoxyphenyl)methyl]-3-(pyridin-4-yl)-1H-1,2,4-triazol-5-amine], the IC50 was 100 to 1000 nM. Molecule COc1ccccc1C(=O)n1nc(-c2ccccn2)nc1NCc1ccc2ccccc2c1 [Cmpd 120, 1-[(2-methoxyphenyl)carbonyl]-N-(naphthalen-2-ylmethyl)-3-(pyridin-2-yl)-1H-1,2,4-triazol-5-amine] has an IC50 greater than 1000 nM. Work on Cc1ccc(C(=O)Nc2nc(C(=O)N3CCOCC3)n[nH]2)cc1 [Cmpd 185, 4-methyl-N-3-[(morpholin-4-yl)carbonyl]-1H-1,2,4-triazol-5-ylbenzamide] yielded an IC50 greater than 1000 nM. In the case of O=C(c1ccccc1Cl)n1nc(-c2ccncc2)nc1NCc1ccc(F)cc1 [Cmpd 112, 1-[(2-chlorophenyl)carbonyl]-N-[(4-fluorophenyl)methyl]-3-(pyridin-4-yl)-1H-1,2,4-triazol-5-amine], the IC50 is reported as less than 100 nM. COc1ccccc1C(=O)n1nc(-c2ccccn2)nc1NCc1csc2ccccc12 [Cmpd 199, N-(1-benzothiophen-3-ylmethyl)-1-[(2-methoxyphenyl)carbonyl]-3-(pyridin-2-yl)-1H-1,2,4-triazol-5-amine] gave an IC50 greater than 1000 nM. For O=C(Cn1nc(-c2cccnc2)nc1NCc1ccc(F)cc1)c1ccccc1 [Cmpd 21], the IC50 was greater than 1000 nM.
